Reference: US20140315883A1, “6H-IMIDAZO[1,5-a]PYRROLO[2,3-e]PYRAZINE COMPOUNDS” (ABBVIE INC., priority 2013, published 2014)

Molecular target: T1, Syk (Homo sapiens, UniProt P43405)
T1 construct: Purified Syk catalytic domain (aa 356-635 with a C-terminal His-tag purified in-house); His-tag (C); made in house
Test: In vitro Syk kinase activity measured by trFRET
Assay type: biochemical
Details: Syk catalytic domain, 0.001 mM ATP
Description: In Vitro Syk Kinase Activity Measured by Time-Resolved Fluorescence Resonance Energy Transfer (trFRET)
After about 60 min incubation at rt, the reaction was quenched by addition of EDTA (final concentration: 100 mM) and developed by addition of revelation reagents (final approximate concentrations: 30 mM HEPES pH 7.0, 0.06% BSA, 0.006% Tween-20, 0.24 M KF, 80 ng/mL PT66K (europium labeled anti-phosphotyrosine antibody cat #61T66KLB Cisbio, Bedford, Mass.) and 0.6 μg/mL SAXL (Phycolink streptavidin-allophycocyanin acceptor, cat #PJ25S, Prozyme, San Leandro, Calif.). The developed reaction was incubated in the dark either at about 4° C. for about 14 h or for about 60 min at rt, then read via a time-resolved fluorescence detector (Rubystar, BMG) using a 337 nm laser for excitation and monitoring emission wavelengths at 665 nm. Within the linear range of the assay, the observed signal at 665 nm was directly related to phosphorylated product and can be used to calculate the IC50 values.

| Compound | IC50 [nM] |
| --- | --- |
| CC(=O)N1C[C@H](O)C[C@@H]1c1nc(-c2ccc(OCCn3nccn3)cc2)c2cnc3[nH]ccc3n12 [A.1.3, 1-((2R,4R)-2-(3-(4-(2-(2H-1,2,3-triazol-2-yl)ethoxy)phenyl)-6H-imidazo[1,5-a]pyrrolo[2,3-e]pyrazin-1-yl)-4-hydroxypyrrolidin-1-yl)ethanone] | 30 to 100 |
| COc1ccc(-c2nc([C@H]3C[C@@H](O)CN3C(C)=O)n3c2cnc2[nH]ccc23)cc1F [F.1.26, 1-((2R,4R)-2-(3-(3-fluoro-4-methoxyphenyl)-6H-imidazo[1,5-a]pyrrolo[2,3-e]pyrazin-1-yl)-4-hydroxypyrrolidin-1-yl)ethanone] | 30 to 100 |
| CC(=O)N1C[C@H](O)C[C@@H]1c1nc(-c2ccc(C3(C)COC3)cc2)c2cnc3[nH]ccc3n12 [A.1.6] | < 10 |
| CC(=O)N1C[C@H](O)C[C@@H]1c1nc(-c2ccc(C(C)(C)C#N)cc2)c2cnc3[nH]ccc3n12 [F.1.16, 2-(4-(1-((2R,4R)-1-acetyl-4-hydroxypyrrolidin-2-yl)-6H-imidazo[1,5-a]pyrrolo[2,3-e]pyrazin-3-yl)phenyl)-2-methylpropanenitrile] | < 10 |
| CC(=O)N1C[C@H](O)C[C@@H]1c1nc(-c2ccc(NC(C)C)cc2)c2cnc3[nH]ccc3n12 [Example #10, 1-((2R,4R)-4-Hydroxy-2-(3-(4-(isopropylamino)phenyl)-6H-imidazo[1,5-a]pyrrolo[2,3-e]pyrazin-1-yl)pyrrolidin-1-yl)ethanone] | 10 to 30 |
| CC(=O)N1C[C@H](O)C[C@@H]1c1nc(-c2ccc(NC(C)C)cc2)c2cnc3[nH]cc(C)c3n12 [Example #11, 1-((2R,4R)-4-Hydroxy-2-(3-(4-(isopropylamino)phenyl)-8-methyl-6H-imidazo[1,5-a]pyrrolo[2,3-e]pyrazin-1-yl)pyrrolidin-1-yl)ethanone] | 30 to 100 |
| CC(=O)N1C[C@H](O)C[C@@H]1c1nc(-c2ccc(C(C)(C)O)c(F)c2)c2cnc3[nH]ccc3n12 [F.1.5, 1-((2R,4R)-2-(3-(3-fluoro-4-(2-hydroxypropan-2-yl)phenyl)-6H-imidazo[1,5-a]pyrrolo[2,3-e]pyrazin-1-yl)-4-hydroxypyrrolidin-1-yl)ethanone] | 10 to 30 |
| CC(=O)N1C[C@H](O)C[C@@H]1c1nc(-c2ccc(OCCN3CCOCC3)cc2)c2cnc3[nH]ccc3n12 [F.1.12, 1-((2R,4R)-4-hydroxy-2-(3-(4-(2-morpholinoethoxy)phenyl)-6H-imidazo[1,5-a]pyrrolo[2,3-e]pyrazin-1-yl)pyrrolidin-1-yl)ethanone] | 10 to 30 |
| COCc1ccc(-c2nc([C@H]3C[C@@H](O)CN3C(C)=O)n3c2cnc2[nH]ccc23)cc1 [Example #7, 1-((2R,4R)-4-Hydroxy-2-(3-(4-(methoxymethyl)phenyl)-6H-imidazo[1,5-a]pyrrolo[2,3-e]pyrazin-1-yl)pyrrolidin-1-yl)ethanone] | 30 to 100 |
| CC(=O)N1C[C@H](O)C[C@@H]1c1nc(-c2ccc(C(F)F)cc2)c2cnc3[nH]ccc3n12 [A.1.5, 1-((2R,4R)-2-(3-(4-(difluoromethyl)phenyl)-6H-imidazo[1,5-a]pyrrolo[2,3-e]pyrazin-1-yl)-4-hydroxypyrrolidin-1-yl)ethanone] | 30 to 100 |
| CC(=O)N1C[C@H](O)C[C@@H]1c1nc(-c2ccc(C(=O)N3CCC(F)(F)CC3)cc2)c2cnc3[nH]ccc3n12 [F.1.1, 1-((2R,4R)-2-(3-(4-(4,4-difluoropiperidine-1-carbonyl)phenyl)-6H-imidazo[1,5-a]pyrrolo[2,3-e]pyrazin-1-yl)-4-hydroxypyrrolidin-1-yl)ethanone] | > 100 |
| CO[C@H](C)c1ccc(-c2nc([C@H]3C[C@@H](O)CN3C(C)=O)n3c2cnc2[nH]ccc23)cc1 [F.1.2, 1-((2R,4R)-4-hydroxy-2-(3-(4-((R)-1-methoxyethyl)phenyl)-6H-imidazo[1,5-a]pyrrolo[2,3-e]pyrazin-1-yl)pyrrolidin-1-yl)ethanone] | 10 to 30 |
| CO[C@@H](C)c1ccc(-c2nc([C@H]3C[C@@H](O)CN3C(C)=O)n3c2cnc2[nH]ccc23)cc1 [F.1.3, 1-((2R,4R)-4-hydroxy-2-(3-(4-((S)-1-methoxyethyl)phenyl)-6H-imidazo[1,5-a]pyrrolo[2,3-e]pyrazin-1-yl)pyrrolidin-1-yl)ethanone] | < 10 |
| CCNc1ccc(-c2nc([C@H]3C[C@@H](O)CN3C(C)=O)n3c2cnc2[nH]ccc23)cc1 [Example #F.1, 1-((2R,4R)-2-(3-(4-(ethylamino)phenyl)-6H-imidazo[1,5-a]pyrrolo[2,3-e]pyrazin-1-yl)-4-hydroxypyrrolidin-1-yl)ethanone] | 10 to 30 |
| CC(=O)N1C[C@H](O)C[C@@H]1c1nc(-c2ccc(OCC3(C)COC3)cc2)c2cnc3[nH]ccc3n12 [D.1.1, 1-((2R,4R)-4-hydroxy-2-(3-(4-((3-methyloxetan-3-yl)methoxy)phenyl)-6H-imidazo[1,5-a]pyrrolo[2,3-e]pyrazin-1-yl)pyrrolidin-1-yl)ethanone] | 10 to 30 |
| COc1ccc(-c2nc([C@H]3C[C@@H](O)CN3C(C)=O)n3c2cnc2[nH]ccc23)cc1C [F.1.22, 1-((2R,4R)-4-hydroxy-2-(3-(4-methoxy-3-methylphenyl)-6H-imidazo[1,5-a]pyrrolo[2,3-e]pyrazin-1-yl)pyrrolidin-1-yl)ethanone] | 10 to 30 |
| COc1ccc(-c2nc([C@H]3C[C@@H](O)CN3C(C)=O)n3c2cnc2[nH]cc(C)c23)cc1 [F.1.14] | 30 to 100 |
| CC(=O)N1C[C@H](O)C[C@@H]1c1nc(-c2ccc(N3CCO[C@H](C)C3)cc2)c2cnc3[nH]ccc3n12 [Example #5 (R), 1-((2R,4R)-4-hydroxy-2-(3-(4-((R)-2-methylmorpholino)phenyl)-6H-imidazo[1,5-a]pyrrolo[2,3-e]pyrazin-1-yl)pyrrolidin-1-yl)ethanone] | < 10 |
| CC(=O)N1C[C@H](O)C[C@@H]1c1nc(-c2ccc3c(c2)OCO3)c2cnc3[nH]ccc3n12 [F.1.24, 1-((2R,4R)-2-(3-(benzo[d][1,3]dioxol-5-yl)-6H-imidazo[1,5-a]pyrrolo[2,3-e]pyrazin-1-yl)-4-hydroxypyrrolidin-1-yl)ethanone] | > 100 |
| CC(=O)N1C[C@H](O)C[C@@H]1c1nc(-c2ccc(OCC3CC3)cc2)c2cnc3[nH]ccc3n12 [D.1.3, 1-((2R,4R)-2-(3-(4-(cyclopropylmethoxy)phenyl)-6H-imidazo[1,5-a]pyrrolo[2,3-e]pyrazin-1-yl)-4-hydroxypyrrolidin-1-yl)ethanone] | 10 to 30 |
| CC(=O)N1C[C@H](O)C[C@@H]1c1nc(-c2ccc(N3CCOCC3)cc2)c2cnc3[nH]cc(Cl)c3n12 [F.1.10, 1-((2R,4R)-2-(8-chloro-3-(4-morpholinophenyl)-6H-imidazo[1,5-a]pyrrolo[2,3-e]pyrazin-1-yl)-4-hydroxypyrrolidin-1-yl)ethanone] | < 10 |
| CC(=O)N1C[C@H](O)C[C@@H]1c1nc(-c2ccc3c(c2)CCCO3)c2cnc3[nH]ccc3n12 [F.1.19, 1-((2R,4R)-2-(3-(chroman-6-yl)-6H-imidazo[1,5-a]pyrrolo[2,3-e]pyrazin-1-yl)-4-hydroxypyrrolidin-1-yl)ethanone] | 10 to 30 |
| CNc1ccc(-c2nc([C@H]3C[C@@H](O)CN3C(C)=O)n3c2cnc2[nH]ccc23)cc1 [Example #1, 1-((2R,4R)-4-Hydroxy-2-(3-(4-(methylamino)phenyl)-6H-imidazo[1,5-a]pyrrolo[2,3-e]pyrazin-1-yl)pyrrolidin-1-yl)ethanone] | 10 to 30 |
| CC(=O)N1C[C@H](O)C[C@@H]1c1nc(-c2ccc(N3CCCCC3)cc2)c2cnc3[nH]ccc3n12 [F.1.1.13, 1-((2R,4R)-4-hydroxy-2-(3-(4-(piperidin-1-yl)phenyl)-6H-imidazo[1,5-a]pyrrolo[2,3-e]pyrazin-1-yl)pyrrolidin-1-yl)ethanone] | < 10 |
| COCCOc1ccc(-c2nc([C@H]3C[C@@H](O)CN3C(=O)CF)n3c2cnc2[nH]ccc23)cc1 [E.1.2, 2-fluoro-1-((2R,4R)-4-hydroxy-2-(3-(4-(2-methoxyethoxy)phenyl)-6H-imidazo[1,5-a]pyrrolo[2,3-e]pyrazin-1-yl)pyrrolidin-1-yl)ethanone] | 10 to 30 |
| CC(=O)N1C[C@H](O)C[C@@H]1c1nc(-c2ccc3c(c2)NCCO3)c2cnc3[nH]ccc3n12 [F.1.29, 1-((2R,4R)-2-(3-(3,4-dihydro-2H-benzo[b][1,4]oxazin-6-yl)-6H-imidazo[1,5-a]pyrrolo[2,3-e]pyrazin-1-yl)-4-hydroxypyrrolidin-1-yl)ethanone] | 10 to 30 |
| CC(=O)N1C[C@H](O)C[C@@H]1c1nc(-c2ccc(O[C@H](C)C3CC3)cc2)c2cnc3[nH]ccc3n12 (single isomer, unassigned) [Example #2] | 30 to 100 |
| CC(=O)N1C[C@H](O)C[C@@H]1c1nc(-c2ccc3c(c2)OCCO3)c2cnc3[nH]ccc3n12 [F.1.6, 1-((2R,4R)-2-(3-(2,3-dihydrobenzo[b][1,4]dioxin-6-yl)-6H-imidazo[1,5-a]pyrrolo[2,3-e]pyrazin-1-yl)-4-hydroxypyrrolidin-1-yl)ethanone] | 30 to 100 |
| COCCOc1ccc(-c2nc([C@H]3C[C@@H](O)CN3C(C)=O)n3c2cnc2[nH]ccc23)cc1 [F.1.21, 1-((2R,4R)-4-hydroxy-2-(3-(4-(2-methoxyethoxy)phenyl)-6H-imidazo[1,5-a]pyrrolo[2,3-e]pyrazin-1-yl)pyrrolidin-1-yl)ethanone] | 10 to 30 |
| CCOc1ccc(-c2nc([C@H]3C[C@@H](O)CN3C(C)=O)n3c2cnc2[nH]ccc23)cc1 [A.1.2, 1-((2R,4R)-2-(3-(4-ethoxyphenyl)-6H-imidazo[1,5-a]pyrrolo[2,3-e]pyrazin-1-yl)-4-hydroxypyrrolidin-1-yl)ethanone] | 10 to 30 |
